#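 Cultured in 96-well plates, cells were exposed to test compound for 48 hours across five concentrations. The concentration for full growth arrest is given as TGI.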
# Key:
# Experiment in all cases: NCI tumour cell line growth inhibition, 48 h
# 786-0 renal = system: 786-0 renal
# A498 renal = system: A498 renal
# A549 NSCLC = system: A549 NSCLC
# ACHN renal = system: ACHN renal
# BT-549 breast = system: BT-549 breast
# CAKI-1 renal = system: CAKI-1 renal
# CCRF-CEM leukemia = system: CCRF-CEM leukemia
# COLO 205 colon = system: COLO 205 colon
# DU-145 prostate = system: DU-145 prostate
# EKVX NSCLC = system: EKVX NSCLC
# HCC-2998 colon = system: HCC-2998 colon
# HCT-116 colon = system: HCT-116 colon
# HCT-15 colon = system: HCT-15 colon
# HOP-62 NSCLC = system: HOP-62 NSCLC
# HOP-92 NSCLC = system: HOP-92 NSCLC
# HS 578T breast = system: HS 578T breast
# HT29 colon = system: HT29 colon
# IGROV1 ovarian = system: IGROV1 ovarian
# K-562 leukemia = system: K-562 leukemia
# KM12 colon = system: KM12 colon
# LOX IMVI melanoma = system: LOX IMVI melanoma
# M14 melanoma = system: M14 melanoma
# MCF7 breast = system: MCF7 breast
# MDA-MB-231 breast = system: MDA-MB-231 breast
# MDA-MB-435 = system: MDA-MB-435
# MDA-N = system: MDA-N
# MOLT-4 leukemia = system: MOLT-4 leukemia
# NCI-H226 lung = system: NCI-H226 lung
# NCI-H23 lung = system: NCI-H23 lung
# NCI-H460 lung = system: NCI-H460 lung
# NCI-H522 lung = system: NCI-H522 lung
# NCI/ADR-RES ovarian = system: NCI/ADR-RES ovarian
# OVCAR-3 ovarian = system: OVCAR-3 ovarian
# OVCAR-4 ovarian = system: OVCAR-4 ovarian
# OVCAR-5 ovarian = system: OVCAR-5 ovarian
# OVCAR-8 ovarian = system: OVCAR-8 ovarian
# PC-3 prostate = system: PC-3 prostate
# RPMI-8226 leukemia = system: RPMI-8226 leukemia
# RXF 393 renal = system: RXF 393 renal
# SF-268 CNS = system: SF-268 CNS
# SF-295 CNS = system: SF-295 CNS
# SF-539 CNS = system: SF-539 CNS
# SK-MEL-2 melanoma = system: SK-MEL-2 melanoma
# SK-MEL-28 melanoma = system: SK-MEL-28 melanoma
# SK-MEL-5 melanoma = system: SK-MEL-5 melanoma
# SK-OV-3 ovarian = system: SK-OV-3 ovarian
# SN12C renal = system: SN12C renal
# SNB-19 CNS = system: SNB-19 CNS
# SNB-75 CNS = system: SNB-75 CNS
# SR leukemia = system: SR leukemia
# SW-620 colon = system: SW-620 colon
# T-47D breast = system: T-47D breast
# TK-10 renal = system: TK-10 renal
# U251 CNS = system: U251 CNS
# UACC-257 melanoma = system: UACC-257 melanoma
# UACC-62 melanoma = system: UACC-62 melanoma
# UO-31 renal = system: UO-31 renal
# DLD-1 colon = system: DLD-1 colon
# DMS 273 small cell lung = system: DMS 273 small cell lung
# HL-60(TB) leukemia = system: HL-60(TB) leukemia
# KM20L2 colon = system: KM20L2 colon
# LXFL 529 NSCLC = system: LXFL 529 NSCLC
# M19-MEL melanoma = system: M19-MEL melanoma
# MALME-3M melanoma = system: MALME-3M melanoma
# SNB-78 CNS = system: SNB-78 CNS
smiles,measurement,setting,value
C/C(O)=C(\C=N\C(N)=S)C(=O)Nc1ccccc1C,TGI,786-0 renal,> 100 µM
same,TGI,A498 renal,> 100 µM
same,TGI,A549 NSCLC,> 100 µM
same,TGI,ACHN renal,> 100 µM
same,TGI,BT-549 breast,> 100 µM
same,TGI,CAKI-1 renal,> 100 µM
same,TGI,CCRF-CEM leukemia,> 100 µM
same,TGI,COLO 205 colon,> 100 µM
same,TGI,DU-145 prostate,> 100 µM
same,TGI,EKVX NSCLC,> 100 µM
same,TGI,HCC-2998 colon,> 100 µM
same,TGI,HCT-116 colon,> 100 µM
same,TGI,HCT-15 colon,> 100 µM
same,TGI,HOP-62 NSCLC,> 100 µM
same,TGI,HOP-92 NSCLC,> 100 µM
same,TGI,HS 578T breast,> 100 µM
same,TGI,HT29 colon,> 100 µM
same,TGI,IGROV1 ovarian,> 100 µM
same,TGI,K-562 leukemia,> 100 µM
same,TGI,KM12 colon,> 100 µM
same,TGI,LOX IMVI melanoma,> 100 µM
same,TGI,M14 melanoma,> 100 µM
same,TGI,MCF7 breast,> 100 µM
same,TGI,MDA-MB-231 breast,> 100 µM
same,TGI,MDA-MB-435,> 100 µM
same,TGI,MDA-N,> 100 µM
same,TGI,MOLT-4 leukemia,> 100 µM
same,TGI,NCI-H226 lung,> 100 µM
same,TGI,NCI-H23 lung,> 100 µM
same,TGI,NCI-H460 lung,> 100 µM
same,TGI,NCI-H522 lung,> 100 µM
same,TGI,NCI/ADR-RES ovarian,> 100 µM
same,TGI,OVCAR-3 ovarian,> 100 µM
same,TGI,OVCAR-4 ovarian,> 100 µM
same,TGI,OVCAR-5 ovarian,> 100 µM
same,TGI,OVCAR-8 ovarian,> 100 µM
same,TGI,PC-3 prostate,> 100 µM
same,TGI,RPMI-8226 leukemia,> 100 µM
same,TGI,RXF 393 renal,> 100 µM
same,TGI,SF-268 CNS,> 100 µM
same,TGI,SF-295 CNS,> 100 µM
same,TGI,SF-539 CNS,> 100 µM
same,TGI,SK-MEL-2 melanoma,> 100 µM
same,TGI,SK-MEL-28 melanoma,> 100 µM
same,TGI,SK-MEL-5 melanoma,> 100 µM
same,TGI,SK-OV-3 ovarian,> 100 µM
same,TGI,SN12C renal,> 100 µM
same,TGI,SNB-19 CNS,> 100 µM
same,TGI,SNB-75 CNS,> 100 µM
same,TGI,SR leukemia,> 100 µM
same,TGI,SW-620 colon,> 100 µM
same,TGI,T-47D breast,> 100 µM
same,TGI,TK-10 renal,> 100 µM
same,TGI,U251 CNS,> 100 µM
same,TGI,UACC-257 melanoma,> 100 µM
same,TGI,UACC-62 melanoma,> 100 µM
same,TGI,UO-31 renal,> 100 µM
Cc1ccc(C(=O)N(C(C)C)C(C)C)cc1N=NN(C)C,TGI,786-0 renal,> 100 µM
same,TGI,A549 NSCLC,> 100 µM
same,TGI,ACHN renal,> 100 µM
same,TGI,BT-549 breast,> 100 µM
same,TGI,CAKI-1 renal,> 100 µM
same,TGI,COLO 205 colon,> 100 µM
same,TGI,DLD-1 colon,> 100 µM
same,TGI,DMS 273 small cell lung,> 100 µM
same,TGI,DU-145 prostate,> 100 µM
same,TGI,EKVX NSCLC,> 100 µM
same,TGI,HCC-2998 colon,> 100 µM
same,TGI,HCT-116 colon,> 100 µM
same,TGI,HCT-15 colon,> 100 µM
same,TGI,HL-60(TB) leukemia,> 100 µM
same,TGI,HOP-62 NSCLC,> 100 µM
same,TGI,HOP-92 NSCLC,> 100 µM
same,TGI,HS 578T breast,> 100 µM
same,TGI,HT29 colon,> 100 µM
same,TGI,IGROV1 ovarian,> 100 µM
same,TGI,K-562 leukemia,> 100 µM
same,TGI,KM12 colon,> 100 µM
same,TGI,KM20L2 colon,> 100 µM
same,TGI,LOX IMVI melanoma,> 31.6 µM
same,TGI,LXFL 529 NSCLC,> 100 µM
same,TGI,M14 melanoma,> 100 µM
same,TGI,M19-MEL melanoma,> 100 µM
same,TGI,MALME-3M melanoma,> 100 µM
same,TGI,MCF7 breast,> 100 µM
same,TGI,MDA-MB-231 breast,> 100 µM
same,TGI,MDA-MB-435,> 100 µM
same,TGI,MDA-N,> 100 µM
same,TGI,MOLT-4 leukemia,> 100 µM
same,TGI,NCI-H226 lung,> 100 µM
same,TGI,NCI-H23 lung,> 100 µM
same,TGI,NCI-H460 lung,> 100 µM
same,TGI,NCI-H522 lung,43.2 µM
same,TGI,NCI/ADR-RES ovarian,> 100 µM
same,TGI,OVCAR-3 ovarian,> 100 µM
same,TGI,OVCAR-4 ovarian,> 100 µM
same,TGI,OVCAR-5 ovarian,> 100 µM
same,TGI,OVCAR-8 ovarian,> 100 µM
same,TGI,PC-3 prostate,> 100 µM
same,TGI,RPMI-8226 leukemia,> 100 µM
same,TGI,SF-268 CNS,98 µM
same,TGI,SF-295 CNS,> 100 µM
same,TGI,SF-539 CNS,> 100 µM
same,TGI,SK-MEL-2 melanoma,> 100 µM
same,TGI,SK-MEL-28 melanoma,> 100 µM
same,TGI,SK-MEL-5 melanoma,> 100 µM
same,TGI,SK-OV-3 ovarian,> 100 µM
same,TGI,SN12C renal,> 100 µM
same,TGI,SNB-19 CNS,> 100 µM
same,TGI,SNB-78 CNS,> 100 µM
same,TGI,SR leukemia,> 100 µM
same,TGI,SW-620 colon,> 100 µM
same,TGI,T-47D breast,> 100 µM
same,TGI,TK-10 renal,> 100 µM
same,TGI,U251 CNS,> 100 µM
same,TGI,UACC-257 melanoma,> 100 µM
same,TGI,UACC-62 melanoma,> 100 µM
same,TGI,UO-31 renal,> 100 µM
OCC1OC(n2cnc3cccnc32)CC1O (centres undefined),TGI,786-0 renal,> 100 µM
same,TGI,A498 renal,> 100 µM
same,TGI,A549 NSCLC,> 100 µM
same,TGI,ACHN renal,> 100 µM
same,TGI,BT-549 breast,> 100 µM
same,TGI,CAKI-1 renal,> 100 µM
same,TGI,CCRF-CEM leukemia,> 100 µM
same,TGI,COLO 205 colon,> 100 µM
same,TGI,DU-145 prostate,> 100 µM
same,TGI,EKVX NSCLC,> 100 µM
same,TGI,HCC-2998 colon,> 100 µM
same,TGI,HCT-116 colon,> 100 µM
same,TGI,HCT-15 colon,> 100 µM
same,TGI,HL-60(TB) leukemia,> 100 µM
same,TGI,HOP-62 NSCLC,> 100 µM
same,TGI,HOP-92 NSCLC,> 100 µM
same,TGI,HS 578T breast,> 100 µM
same,TGI,HT29 colon,> 100 µM
same,TGI,IGROV1 ovarian,> 100 µM
same,TGI,K-562 leukemia,> 100 µM
same,TGI,KM12 colon,> 100 µM
same,TGI,LOX IMVI melanoma,> 100 µM
same,TGI,M14 melanoma,> 100 µM
same,TGI,MCF7 breast,> 100 µM
same,TGI,MDA-MB-231 breast,> 100 µM
same,TGI,MDA-MB-435,> 100 µM
same,TGI,MDA-N,> 100 µM
same,TGI,MOLT-4 leukemia,> 100 µM
same,TGI,NCI-H226 lung,> 100 µM
same,TGI,NCI-H23 lung,> 100 µM
same,TGI,NCI-H460 lung,> 100 µM
same,TGI,NCI-H522 lung,> 100 µM
same,TGI,NCI/ADR-RES ovarian,> 100 µM
same,TGI,OVCAR-3 ovarian,> 100 µM
same,TGI,OVCAR-4 ovarian,> 100 µM
same,TGI,OVCAR-5 ovarian,> 100 µM
same,TGI,OVCAR-8 ovarian,> 100 µM
same,TGI,PC-3 prostate,> 100 µM
same,TGI,RXF 393 renal,> 100 µM
same,TGI,SF-268 CNS,> 100 µM
same,TGI,SF-295 CNS,> 100 µM
same,TGI,SF-539 CNS,> 100 µM
same,TGI,SK-MEL-2 melanoma,> 100 µM
same,TGI,SK-MEL-28 melanoma,> 100 µM
same,TGI,SK-MEL-5 melanoma,> 100 µM
same,TGI,SN12C renal,> 100 µM
same,TGI,SNB-19 CNS,> 100 µM
same,TGI,SNB-75 CNS,> 100 µM
same,TGI,SR leukemia,> 100 µM
same,TGI,SW-620 colon,> 100 µM
same,TGI,T-47D breast,> 100 µM
same,TGI,TK-10 renal,> 100 µM
same,TGI,U251 CNS,> 100 µM
same,TGI,UACC-257 melanoma,> 100 µM
same,TGI,UACC-62 melanoma,> 100 µM
same,TGI,UO-31 renal,> 100 µM
